Results from BindingDB's records for doi:10.1016/j.bioorg.2016.01.008 (King Abdulaziz University, 2016).

Target: Alpha-glucosidase MAL12 (Saccharomyces cerevisiae (strain ATCC 204508 / S288c), UniProt P53341)
Experiment: In-vitro Yeast α-Glucosidase Inhibition Assay
Procedure: α-Glucosidase inhibitory activity was evaluated at 37 °C, by using 0.1M phosphatebuffer (pH6.8) [28]. The enzyme(EC3.2.1.20, Saccharomyces cerevisiae purchased from sigma; catalog # G5003) (0.2 U/mL) was incubated with test compounds and phosphate buffer at 37 °C for 15 min. After 15min of incubation, 0.7 mM of substrate i.e. p-nitrophenyl-α-D-glucopyranoside (Sigma; catalog # N1377) was added and the change in absorbance was recorded at 400 nm for 30min by using spectrophotometer (SpectraMax M2, Molecular Devices, CA, USA).

Sequence of Alpha-glucosidase MAL12 (P53341 whole entry): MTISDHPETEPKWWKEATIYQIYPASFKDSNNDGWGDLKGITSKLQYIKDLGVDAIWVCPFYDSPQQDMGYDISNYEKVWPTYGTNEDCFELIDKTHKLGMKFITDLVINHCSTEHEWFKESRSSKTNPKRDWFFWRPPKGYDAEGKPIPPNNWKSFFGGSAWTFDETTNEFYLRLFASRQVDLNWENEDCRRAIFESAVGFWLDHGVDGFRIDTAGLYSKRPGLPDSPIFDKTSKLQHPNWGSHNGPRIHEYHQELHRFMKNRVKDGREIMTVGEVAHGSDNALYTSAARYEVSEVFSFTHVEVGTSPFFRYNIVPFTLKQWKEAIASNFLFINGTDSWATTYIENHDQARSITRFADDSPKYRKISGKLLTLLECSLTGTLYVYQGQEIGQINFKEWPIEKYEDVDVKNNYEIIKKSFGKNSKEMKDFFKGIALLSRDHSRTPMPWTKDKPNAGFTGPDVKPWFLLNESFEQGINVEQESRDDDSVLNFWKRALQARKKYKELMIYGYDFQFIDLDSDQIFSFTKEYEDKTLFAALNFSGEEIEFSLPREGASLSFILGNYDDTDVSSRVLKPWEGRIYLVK

Compound	IC50
Cc1[nH]nc2c1C(c1ccc([N+](=O)[O-])cc1)C(C#N)=C(N)O2 (stereo not given) [6-Amino-3-methyl-4-(4-nitrophenyl)-2,4-dihydropyrano[2,3-c]pyrazole-5-carbonitrile (1)]	54.2 µM
Cc1n[nH]c2c1C(c1ccc(Cl)cc1Cl)C(C#N)=C(N)O2 (stereo not given) [6-Amino-4-(2,4-dichlorophenyl)-3-methyl-2,4-dihydropyrano[2,3-c]pyrazole-5-carbonitrile (4)]	180 µM

Continued, values first:

IC50	Compound
164 µM	Cc1[nH]nc2c1C(c1ccccc1OCc1ccccc1)C(C#N)=C(N)O2 (stereo not given) [6-Amino-4-(2-(benzyloxy)phenyl)-3-methyl-2,4-dihydropyrano[2,3-c]pyrazole-5-carbonitrile (33)]
60.8 µM	COc1cc(C2C(C#N)=C(N)Oc3n[nH]c(C)c32)ccc1OCc1ccccc1 (stereo not given) [6-Amino-4-(4-(benzyloxy)-3-methoxyphenyl)-3-methyl-2,4-dihydropyrano[2,3-c]pyrazole-5-carbonitrile (30)]
160 µM	Cc1[nH]nc2c1C(c1ccc(O)c(OCc3ccccc3)c1)C(C#N)=C(N)O2 (stereo not given) [6-Amino-4-(3-(benzyloxy)-4-hydroxyphenyl)-3-methyl-2,4-dihydropyrano[2,3-c]pyrazole-5-carbonitrile (22)]
